Experimental data reported in ChEMBL document CHEMBL1201862, “PubChem BioAssay data set” (2004).
Calls of active or inactive are those of the source.

What was measured:
[1] = biological target: Intestinal-type alkaline phosphatase (Mus musculus, UniProt P24822); assay: PubChem AID 488785; type: functional
[2] = biological target: Heat shock protein HSP 90-alpha (Homo sapiens, UniProt P07900); type: functional, organism-based
[3] = biological target: T1, Alkaline phosphatase, tissue-nonspecific isozyme (Homo sapiens, UniProt P05186); assay: TNAP enzyme inhibition by screening hits, dose response, selectivity assay for mouse IAP inhibitor project, biochemical, human TNAP, uHTS hits (AID 488906); type: functional
T1 sequence (P05186 whole entry): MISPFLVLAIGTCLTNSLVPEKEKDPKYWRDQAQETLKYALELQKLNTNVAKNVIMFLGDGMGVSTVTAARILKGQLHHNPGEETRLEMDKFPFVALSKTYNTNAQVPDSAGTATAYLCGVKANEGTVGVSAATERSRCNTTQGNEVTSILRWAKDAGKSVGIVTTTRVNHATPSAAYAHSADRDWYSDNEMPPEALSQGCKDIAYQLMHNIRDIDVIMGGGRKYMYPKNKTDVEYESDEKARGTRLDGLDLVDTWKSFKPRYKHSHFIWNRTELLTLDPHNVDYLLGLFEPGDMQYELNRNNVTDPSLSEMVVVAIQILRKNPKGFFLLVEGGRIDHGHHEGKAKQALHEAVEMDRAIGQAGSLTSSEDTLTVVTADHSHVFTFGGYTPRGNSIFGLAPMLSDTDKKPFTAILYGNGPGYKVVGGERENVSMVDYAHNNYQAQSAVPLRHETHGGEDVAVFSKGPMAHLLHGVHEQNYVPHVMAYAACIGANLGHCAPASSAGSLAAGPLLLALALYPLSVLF

[4] = biological target: T2, Type-1 angiotensin II receptor (Homo sapiens, UniProt P30556); assay: antagonism of angiotensin II type 1 receptor – cell-based, uHTS hits, selectivity assay for APJ receptor antagonist project, dose response (AID 463214); type: functional;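 note: antagonist potency against angiotensin II stimulated AT1 response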
T2 sequence (P30556 whole entry): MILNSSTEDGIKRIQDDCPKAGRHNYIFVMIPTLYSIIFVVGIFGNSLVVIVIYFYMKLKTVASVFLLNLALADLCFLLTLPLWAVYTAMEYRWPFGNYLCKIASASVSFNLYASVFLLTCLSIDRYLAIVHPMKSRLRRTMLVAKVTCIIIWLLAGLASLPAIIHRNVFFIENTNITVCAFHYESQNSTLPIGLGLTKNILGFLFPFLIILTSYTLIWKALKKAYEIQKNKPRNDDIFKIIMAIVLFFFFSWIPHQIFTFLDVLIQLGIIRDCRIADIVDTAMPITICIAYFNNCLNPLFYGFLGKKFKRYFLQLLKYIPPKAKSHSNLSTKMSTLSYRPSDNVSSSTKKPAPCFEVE

[5] = biological target: Intestinal-type alkaline phosphatase (Homo sapiens, UniProt P09923); assay: inhibition of human intestinal alkaline phosphatase – biochemical, dose response (AID 488876); type: functional
[6] = biological target: Beta-galactosidase (Escherichia coli, UniProt Q8VNN2); assay: PubChem AID 485352; type: functional
[7] = biological target: DNA dC->dU-editing enzyme APOBEC-3G (Homo sapiens, UniProt Q9HC16); assay: Dose Response confirmation of small molecule APOBEC3G DNA Deaminase Inhibitors via a fluorescence-based single-stranded DNA deaminase assay. [Related pubchem assays (depositor defined):AID493012, AID493028]; type: functional
[8] = biological target: T3, Apoptotic protease-activating factor 1 (Homo sapiens, UniProt O14727); assay: activation of Apaf-1 mediated apoptosis – fluorescent, uHTS hits, dose response (AID 588554); type: functional
T3 sequence (O14727 whole entry): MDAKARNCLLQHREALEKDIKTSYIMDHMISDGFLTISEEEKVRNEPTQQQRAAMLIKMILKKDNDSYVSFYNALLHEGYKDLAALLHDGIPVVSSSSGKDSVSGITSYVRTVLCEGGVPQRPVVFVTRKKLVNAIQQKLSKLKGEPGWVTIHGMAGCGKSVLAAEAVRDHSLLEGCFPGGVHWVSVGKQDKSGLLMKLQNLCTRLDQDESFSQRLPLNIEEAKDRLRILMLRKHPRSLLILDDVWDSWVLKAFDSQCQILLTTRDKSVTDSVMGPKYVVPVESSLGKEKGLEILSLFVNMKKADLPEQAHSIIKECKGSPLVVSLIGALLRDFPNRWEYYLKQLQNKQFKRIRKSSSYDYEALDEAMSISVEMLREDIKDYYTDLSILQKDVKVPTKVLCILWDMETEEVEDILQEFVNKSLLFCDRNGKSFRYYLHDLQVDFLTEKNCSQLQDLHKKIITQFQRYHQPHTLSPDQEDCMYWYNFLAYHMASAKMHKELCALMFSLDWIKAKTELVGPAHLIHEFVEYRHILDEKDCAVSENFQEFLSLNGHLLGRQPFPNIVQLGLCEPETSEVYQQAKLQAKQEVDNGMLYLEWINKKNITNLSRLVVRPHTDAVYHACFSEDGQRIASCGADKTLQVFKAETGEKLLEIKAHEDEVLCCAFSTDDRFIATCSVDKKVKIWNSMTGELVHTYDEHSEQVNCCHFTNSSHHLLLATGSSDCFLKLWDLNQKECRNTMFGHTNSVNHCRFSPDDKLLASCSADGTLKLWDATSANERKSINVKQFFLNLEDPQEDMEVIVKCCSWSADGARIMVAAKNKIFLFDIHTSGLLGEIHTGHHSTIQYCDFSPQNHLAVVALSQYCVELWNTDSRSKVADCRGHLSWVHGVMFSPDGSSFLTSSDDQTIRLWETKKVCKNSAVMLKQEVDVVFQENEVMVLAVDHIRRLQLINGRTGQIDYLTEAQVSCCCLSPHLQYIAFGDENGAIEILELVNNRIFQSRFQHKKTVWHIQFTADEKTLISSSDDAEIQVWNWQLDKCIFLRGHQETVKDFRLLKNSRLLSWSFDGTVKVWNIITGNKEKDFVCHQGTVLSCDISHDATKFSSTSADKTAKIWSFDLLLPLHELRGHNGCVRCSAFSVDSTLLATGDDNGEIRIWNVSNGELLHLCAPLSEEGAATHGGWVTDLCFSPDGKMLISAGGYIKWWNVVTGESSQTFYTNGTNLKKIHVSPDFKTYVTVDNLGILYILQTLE

[9] = biological target: T4, Small ubiquitin-related modifier 1 (Homo sapiens, UniProt P63165); assay: SUMO1 protein-protein binding blockers, potency – biochemical, FRET, dose response (AID 624383); type: functional; settings: read-out: IC50_Mean
[10] = biological target: T5, Carboxy-terminal domain RNA polymerase II polypeptide A small phosphatase 1 (Homo sapiens, UniProt Q9GZU7); assay: CTDSP1 inhibitors, concentration-response, biochemical, absorbance readout, ultra-high-throughput screen actives (AID 540297); type: functional
T5 sequence (Q9GZU7 whole entry): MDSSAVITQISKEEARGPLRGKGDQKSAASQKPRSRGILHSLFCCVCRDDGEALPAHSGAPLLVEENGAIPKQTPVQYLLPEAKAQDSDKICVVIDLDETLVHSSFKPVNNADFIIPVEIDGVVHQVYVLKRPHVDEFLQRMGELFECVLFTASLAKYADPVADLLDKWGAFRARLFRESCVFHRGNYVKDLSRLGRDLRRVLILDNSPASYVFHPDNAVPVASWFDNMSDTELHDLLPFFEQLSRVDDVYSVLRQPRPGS

[11] = biological target: T4, Small ubiquitin-related modifier 1; assay: SUMO1 protein interaction blockers, potency – biochemical, fluorescence polarization, uHTS hits, dose response (AID 624382); type: functional; settings: read-out: IC50_Mean
[12] = biological target: DNA dC->dU-editing enzyme APOBEC-3A (Homo sapiens, UniProt P31941); assay: A3A deaminase inhibition for selectivity – biochemical, dose response (AID 504722); type: functional
Chain of DNA dC->dU-editing enzyme APOBEC-3A (P31941 whole entry): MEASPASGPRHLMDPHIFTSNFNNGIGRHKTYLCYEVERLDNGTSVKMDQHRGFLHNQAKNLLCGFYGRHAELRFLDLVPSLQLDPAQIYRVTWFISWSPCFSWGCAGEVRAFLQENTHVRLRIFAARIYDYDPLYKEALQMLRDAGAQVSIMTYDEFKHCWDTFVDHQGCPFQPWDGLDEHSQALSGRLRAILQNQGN

T4 sequence (P63165 whole entry, the tested form may be a part): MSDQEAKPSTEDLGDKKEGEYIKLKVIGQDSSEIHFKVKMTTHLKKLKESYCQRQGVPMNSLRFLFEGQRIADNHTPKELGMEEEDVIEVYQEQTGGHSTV
Chain of Intestinal-type alkaline phosphatase (Homo sapiens, UniProt P09923) (P09923 whole entry): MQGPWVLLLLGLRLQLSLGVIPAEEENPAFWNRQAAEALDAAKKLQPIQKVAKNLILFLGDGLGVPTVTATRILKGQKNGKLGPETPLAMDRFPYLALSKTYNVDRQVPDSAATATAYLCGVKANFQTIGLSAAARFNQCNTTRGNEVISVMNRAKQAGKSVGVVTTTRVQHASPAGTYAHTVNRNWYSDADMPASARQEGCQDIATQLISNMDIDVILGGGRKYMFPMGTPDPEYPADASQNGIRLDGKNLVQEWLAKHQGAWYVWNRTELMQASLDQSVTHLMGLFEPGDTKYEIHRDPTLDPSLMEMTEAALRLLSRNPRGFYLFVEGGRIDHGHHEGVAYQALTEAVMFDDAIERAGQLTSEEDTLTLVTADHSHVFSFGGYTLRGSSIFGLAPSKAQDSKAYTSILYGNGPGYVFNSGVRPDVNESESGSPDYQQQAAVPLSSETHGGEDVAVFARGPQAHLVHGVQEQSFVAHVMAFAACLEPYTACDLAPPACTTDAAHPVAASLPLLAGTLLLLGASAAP
Chain of DNA dC->dU-editing enzyme APOBEC-3G (Q9HC16 whole entry): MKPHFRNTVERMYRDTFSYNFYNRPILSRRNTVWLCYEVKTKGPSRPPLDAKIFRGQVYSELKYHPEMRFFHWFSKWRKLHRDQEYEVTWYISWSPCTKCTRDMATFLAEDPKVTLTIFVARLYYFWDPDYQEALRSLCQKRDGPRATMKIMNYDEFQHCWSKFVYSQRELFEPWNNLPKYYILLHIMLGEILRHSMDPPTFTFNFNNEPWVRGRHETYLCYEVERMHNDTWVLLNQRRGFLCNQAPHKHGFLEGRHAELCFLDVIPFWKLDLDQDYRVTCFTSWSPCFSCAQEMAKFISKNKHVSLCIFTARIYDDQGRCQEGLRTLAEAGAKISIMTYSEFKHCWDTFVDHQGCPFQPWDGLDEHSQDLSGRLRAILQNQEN
Chain of Intestinal-type alkaline phosphatase (Mus musculus, UniProt P24822) (P24822 whole entry): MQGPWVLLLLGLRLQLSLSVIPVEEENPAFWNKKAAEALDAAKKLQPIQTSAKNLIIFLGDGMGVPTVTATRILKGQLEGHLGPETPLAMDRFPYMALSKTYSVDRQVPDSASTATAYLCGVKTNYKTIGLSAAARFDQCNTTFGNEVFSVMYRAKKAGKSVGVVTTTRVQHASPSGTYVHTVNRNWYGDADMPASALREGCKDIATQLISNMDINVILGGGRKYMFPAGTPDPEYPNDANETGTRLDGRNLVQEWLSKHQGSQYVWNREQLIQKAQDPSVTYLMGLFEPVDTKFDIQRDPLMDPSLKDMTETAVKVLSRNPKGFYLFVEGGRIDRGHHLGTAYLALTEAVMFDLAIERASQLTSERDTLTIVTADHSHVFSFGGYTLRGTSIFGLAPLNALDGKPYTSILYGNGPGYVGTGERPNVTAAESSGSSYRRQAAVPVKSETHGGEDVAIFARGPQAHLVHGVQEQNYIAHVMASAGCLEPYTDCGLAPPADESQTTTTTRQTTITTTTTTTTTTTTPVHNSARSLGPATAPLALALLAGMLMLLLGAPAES
Chain of Beta-galactosidase (Q8VNN2 whole entry): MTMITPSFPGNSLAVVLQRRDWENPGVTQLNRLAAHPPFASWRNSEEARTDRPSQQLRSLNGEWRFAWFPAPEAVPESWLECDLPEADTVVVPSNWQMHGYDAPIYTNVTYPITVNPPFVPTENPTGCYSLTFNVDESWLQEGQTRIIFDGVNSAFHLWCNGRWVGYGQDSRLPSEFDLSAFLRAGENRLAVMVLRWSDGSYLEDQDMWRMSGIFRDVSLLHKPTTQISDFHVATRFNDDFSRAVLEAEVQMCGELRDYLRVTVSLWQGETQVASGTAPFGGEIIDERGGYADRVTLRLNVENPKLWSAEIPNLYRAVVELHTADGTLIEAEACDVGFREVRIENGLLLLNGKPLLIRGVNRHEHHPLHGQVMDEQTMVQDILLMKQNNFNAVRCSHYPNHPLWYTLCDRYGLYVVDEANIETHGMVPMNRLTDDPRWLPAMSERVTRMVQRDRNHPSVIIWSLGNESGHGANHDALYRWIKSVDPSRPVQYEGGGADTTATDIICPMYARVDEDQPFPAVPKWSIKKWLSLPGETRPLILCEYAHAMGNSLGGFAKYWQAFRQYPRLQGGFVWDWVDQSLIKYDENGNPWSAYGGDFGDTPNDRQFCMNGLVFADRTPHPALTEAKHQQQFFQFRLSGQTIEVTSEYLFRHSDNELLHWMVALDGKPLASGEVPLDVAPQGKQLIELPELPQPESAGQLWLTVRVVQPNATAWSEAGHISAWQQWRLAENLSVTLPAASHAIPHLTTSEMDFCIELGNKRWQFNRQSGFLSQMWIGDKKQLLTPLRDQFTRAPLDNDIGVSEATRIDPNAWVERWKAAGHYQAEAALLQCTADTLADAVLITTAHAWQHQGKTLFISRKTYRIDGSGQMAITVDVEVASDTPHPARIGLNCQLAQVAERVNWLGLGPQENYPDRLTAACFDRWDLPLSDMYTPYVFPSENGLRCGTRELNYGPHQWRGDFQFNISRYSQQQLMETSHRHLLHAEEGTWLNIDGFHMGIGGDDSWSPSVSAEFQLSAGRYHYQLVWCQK

Compound | IC50 [1] | AC50 [2] | IC50 [3] | IC50 [4] | IC50 [5] | EC50 [6] | IC50 [7] | EC50 [8] | IC50 [9] | IC50 [10] | IC50 [11] | IC50 [12]
COc1cc(/C=C/[N+](=O)[O-])ccc1OC(=O)c1cc2ccccc2oc1=O | 13 µM (active) | 1.01 µM (active) | > 100 µM (inactive) | 10.4 µM (active) | > 100 µM (inactive) | > 40 µM (inactive) | – | – | – | – | – | –
C=C(C)C(=O)Nc1cccc(C2=NOC3(C2)C[C@@H](C(N)=O)N(C(=O)c2cc([N+](=O)[O-])cc([N+](=O)[O-])c2C)C3)c1 (some centres not stated) | – | – | – | – | – | – | 14 µM (active) | 10.8 µM (active) | 8.54 µM (active) | 4.59 µM (active) | > 66.6 µM (inactive) | > 100 µM (inactive)
